# Assay results taken from patent publication US9113629B2, “4-amino-6-(4-substituted-phenyl)-picolinates and 6-amino-2-(4-substituted-phenyl)-pyrimidine-4-carboxylates and their use as herbicides” (DOW AGROSCIENCES LLC, priority 2013, dated 2015).
# Like-named read-outs stand apart in the source and are kept apart here.
# Columns and labels:
# [1] = system: Key Broadleaf Weed and Crop Species; test: Post-emergent Test II herbicidal activity (Table 5); type: in vivo; conditions: post-emergence, 336 h, 14 days after application; for pest or weed control at 70 g/ha: application rate 70 g ai/ha; for pest or weed control at 140 g/ha: application rate 140 g ai/ha
# Summary of the method: (§1)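 Greenhouse-grown plants at first or second true leaf stage were sprayed post-emergence with compound in acetone/DMSO-based aqueous spray containing crop oil concentrate and surfactant, at 187 L/ha, highest rate plus ½× to 1/16× dilutions. After 14 d, injury was scored visually versus untreated plants, 0 (none) to 100% (complete kill).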
# [2] = system: Key Grass and Sedge Weeds as well as Grass Crops; test: Post-emergent Test II herbicidal activity (Table 6); type: in vivo; conditions: post-emergence, 336 h; for pest or weed control at 70 g/ha: 70 g ai/ha; for pest or weed control at 140 g/ha: 140 g ai/ha
# Summary of the method: as §1
# [3] = ABUTH: velvetleaf (Abutilon theophrasti), read-out: Visual Growth Reduction (%) 14 Days After Application, ABUTH
# [4] = AMARE: redroot pigweed (Amaranthus retroflexus), read-out: Visual Growth Reduction (%) 14 Days After Application, AMARE
# [5] = BRSNN: oilseed-rape, canola (Brassica napus), read-out: Visual Growth Reduction (%) 14 Days After Application, BRSNN
# [6] = CHEAL: lambsquarters (Chenopodium album), read-out: Visual Growth Reduction (%) 14 Days After Application, CHEAL
# [7] = EPHHL: wild poinsettia (Euphorbia heterophylla), read-out: Visual Growth Reduction (%) 14 Days After Application, EPHHL
# [8] = HELAN: sunflower (Helianthus annuus), read-out: Visual Growth Reduction (%) 14 Days After Application, HELAN
# [9] = VIOTR: wild pansy (Viola tricolor), read-out: Visual Growth Reduction (%) 14 Days After Application, VIOTR
# [10] = CYPES: yellow nutsedge (Cyperus esculentus), read-out: Visual Growth Reduction (%) 14 Days After Application, CYPES
# [11] = DIGSA: crabgrass (Digitaria sanguinalis), read-out: Visual Growth Reduction (%) 14 Days After Application, DIGSA
# [12] = ECHCG: barnyardgrass (Echinochloa crus-galli), read-out: Visual Growth Reduction (%) 14 Days After Application, ECHCG
# [13] = ORYSA: rice (Oryza sativa), crop, read-out: Visual Growth Reduction (%) 14 Days After Application, ORYSA
# [14] = SETFA: giant foxtail (Setaria faberi), read-out: Visual Growth Reduction (%) 14 Days After Application, SETFA
# [15] = SORVU: grain sorghum (Sorghum vulgare), read-out: Visual Growth Reduction (%) 14 Days After Application, SORVU
# [16] = TRZSS (wheat, Triticum aestivum), crop, read-out: Visual Growth Reduction (%) 14 Days After Application, TRZSS
# [17] = ZEAMX: maize, corn (Zea mays), crop, read-out: Visual Growth Reduction (%) 14 Days After Application, ZEAMX
smiles,measurement,setting,value
"COC(=O)c1nc(-c2ccc(Br)c(F)c2F)c(F)c(N)c1Cl [Compound 109, methyl 4-amino-6-(4-bromo-2,3-difluorophenyl)-3-chloro-5-fluoropicolinate]",pest or weed control at 70 g/ha,[1]; [3],95 to 100%
same,pest or weed control at 140 g/ha,[1]; [3],95 to 100%
same,pest or weed control at 70 g/ha,[1]; [4],95 to 100%
same,pest or weed control at 140 g/ha,[1]; [4],95 to 100%
same,pest or weed control at 70 g/ha,[1]; [5],95 to 100%
same,pest or weed control at 140 g/ha,[1]; [5],95 to 100%
same,pest or weed control at 70 g/ha,[1]; [6],95 to 100%
same,pest or weed control at 140 g/ha,[1]; [6],95 to 100%
same,pest or weed control at 70 g/ha,[1]; [7],95 to 100%
same,pest or weed control at 140 g/ha,[1]; [7],95 to 100%
same,pest or weed control at 70 g/ha,[1]; [8],0 to 29%
same,pest or weed control at 140 g/ha,[1]; [8],95 to 100%
same,pest or weed control at 70 g/ha,[1]; [9],95 to 100%
same,pest or weed control at 140 g/ha,[1]; [9],95 to 100%
same,pest or weed control at 70 g/ha,[2]; [10],95 to 100%
same,pest or weed control at 140 g/ha,[2]; [10],95 to 100%
same,pest or weed control at 70 g/ha,[2]; [11],85 to 94%
same,pest or weed control at 140 g/ha,[2]; [11],95 to 100%
same,pest or weed control at 70 g/ha,[2]; [12],95 to 100%
same,pest or weed control at 140 g/ha,[2]; [12],95 to 100%
same,pest or weed control at 70 g/ha,[2]; [13],45 to 59%
same,pest or weed control at 140 g/ha,[2]; [13],45 to 59%
same,pest or weed control at 70 g/ha,[2]; [14],95 to 100%
same,pest or weed control at 140 g/ha,[2]; [14],95 to 100%
same,pest or weed control at 70 g/ha,[2]; [15],85 to 94%
same,pest or weed control at 140 g/ha,[2]; [15],95 to 100%
same,pest or weed control at 70 g/ha,[2]; [16],45 to 59%
same,pest or weed control at 140 g/ha,[2]; [16],60 to 74%
same,pest or weed control at 70 g/ha,[2]; [17],85 to 94%
same,pest or weed control at 140 g/ha,[2]; [17],85 to 94%
